From patent US20250026724A1, “(1,4,5-TRISUBSTITUTED 1H-PYRAZOL-3-YL)OXY-2-ALKYLTHIOALKYL ACIDS AND -ALKYL ACID DERIVATIVES, SALTS THEREOF AND USE THEREOF AS ACTIVE HERBICIDAL INGREDIENTS” (BAYER AKTIENGESELLSCHAFT, priority 2021, published 2025)

Assays:
Format in all cases: in vivo
[1] = system: Polygonum convolvulus (POLCO); experiment: Pre-emergence herbicidal effect, greenhouse pot trial; conditions: visual rating after about 3 weeks vs untreated controls
Description: (§1) Seeds of monocotyledonous and dicotyledonous weed plants and crop plants are placed in plastic or organic planting pots and covered with soil. The compounds of the invention, formulated in the form of wettable powders (WP) or as emulsion concentrates (EC), are then applied to the surface of the covering soil as aqueous suspension or emulsion with addition of 0.5% additive at a water application rate equivalent to 600 1/ha. After the treatment, the pots are placed in a greenhouse and kept under good growth conditions for the trial plants. After about 3 weeks, the effect of the preparations is rated visually in comparison with untreated controls as percentages. For example, 100% activity=the plants have died, 0% activity=like control plants.
(§2) Tables A1 and A2 below show the effects of selected compounds of the general formula (I) according to Table 1 on various harmful plants and at an application rate corresponding to 320 g/ha or lower, which were obtained by the trial procedure specified above. The appendices “a” and “b” give differentiation by dosage used with otherwise the same harmful plants tested.
(§3) As shown by the results from Tables A1 and A2, compounds of the invention have good pre-emergence herbicidal efficacy against harmful plants, for example against harmful plants such as Amaranthus retroflexus (AMARE) and Polygonum convolvulus (POLCO).

[2] = system: Amaranthus retroflexus (AMARE); experiment: as above; conditions: visual rating after about 3 weeks vs untreated controls
Description: as §1, §2, §3

[3] = system: Alopecurus myosuroides (ALOMY); experiment: Post-emergence herbicidal action, greenhouse pot trial; conditions: Alopecurus myosuroides, 504 h, 320 g/ha, visual rating after about 3 weeks, read-out: Post-emergence effect at 320 g/ha against ALOMY in %
Procedure, shortened: (§4)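 Using WP or EC formulations applied at the one-leaf stage, compounds were sprayed onto weeds at 320 g/ha or lower. Percent activity was estimated visually about three weeks later, with dead plants scored 100% and control-like plants 0%.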

Setaria viridis (SETVI) = experiment: as above; conditions: Setaria viridis, 504 h, 320 g/ha, visual rating after about 3 weeks, read-out: Post-emergence effect at 320 g/ha against SETVI in %
Procedure, shortened: as §4

[4] = system: Polygonum convolvulus (POLCO); experiment: as above; conditions: Fallopia convolvulus, 504 h, visual rating after about 3 weeks
Procedure, shortened: as §4

[5] = system: Abutilon theophrasti (ABUTH); experiment: as above; conditions: Abutilon theophrasti, 504 h, 320 g/ha, visual rating after about 3 weeks, read-out: Post-emergence effect at 320 g/ha against ABUTH in %
Procedure, shortened: as §4

[6] = system: Matricaria inodora (MATIN); experiment: as above; conditions: Tripleurospermum inodorum, 504 h, visual rating after about 3 weeks
Procedure, shortened: as §4

Lolium rigidum (LOLRI) = experiment: as above; conditions: Lolium rigidum, 504 h, 320 g/ha, visual rating after about 3 weeks, read-out: Post-emergence effect at 320 g/ha against LOLRI in %
Procedure, shortened: as §4

Viola tricolor (VIOTR) = experiment: as above; conditions: Viola tricolor, 504 h, 320 g/ha, read-out: Post-emergence effect against VIOTR
Procedure, shortened: as §4

[7] = system: Pharbitis purpurea (PHBPU); experiment: as above; conditions: Ipomoea purpurea, 504 h, 320 g/ha, visual rating after about 3 weeks, read-out: Post-emergence effect at 320 g/ha against PHBPU in %
Procedure, shortened: as §4

[8] = system: Echinochloa crus-galli (ECHCG); experiment: as above; conditions: Echinochloa crus-galli, 504 h, visual rating after about 3 weeks
Procedure, shortened: as §4

Zea mays (ZEAMX) = experiment: Post-emergence crop plant compatibility, greenhouse pot trial; conditions: in comparison to untreated controls
Procedure, shortened: (§5)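 Crops grown in sandy loam, sprayed at one-leaf stage (2–3 weeks post-sowing) with WP or EC formulations plus 0.5% additive at 600 l/ha water. Damage rated visually after ~3 weeks versus untreated controls, as % (100% = dead); suffixes a–c denote dosages.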

[9] = system: Triticum aestivum (TRZAS); experiment: as above; conditions: post-emergence; for Post-emergence effect against TRZAS (crop plant compatibility): in comparison to untreated controls; for Post-emergence effect at 320 g/ha against TRZAS in %: crop plant compatibility (effect on crop vs untreated controls)
Procedure, shortened: as §5

Oryza sativa (ORYSA) = experiment: as above; conditions: in comparison to untreated controls
Procedure, shortened: as §5

Glycine max (GLXMA) = experiment: as above; conditions: in comparison to untreated controls
Procedure, shortened: as §5

Brassica napus (BRSNW) = experiment: as above; conditions: 20 g/ha, in comparison to untreated controls
Procedure, shortened: as §5

Row | SMILES | Post-emergence effect against ZEAMX (crop plant compatibility) (Zea mays (ZEAMX); 20 g/ha) [%] | Post-emergence effect against ZEAMX (crop plant compatibility) (Zea mays (ZEAMX); 80 g/ha) [%] | Post-emergence effect against ZEAMX (crop plant compatibility) (Zea mays (ZEAMX); 320 g/ha) [%] | Post-emergence effect against TRZAS (crop plant compatibility) ([9]; 20 g/ha) [%] | Post-emergence effect against TRZAS (crop plant compatibility) ([9]; 80 g/ha) [%] | Post-emergence effect at 320 g/ha against TRZAS in % [9] [%] | Post-emergence effect against ORYSA (crop plant compatibility) (Oryza sativa (ORYSA); 20 g/ha) [%] | Post-emergence effect against ORYSA (crop plant compatibility) (Oryza sativa (ORYSA); 80 g/ha) [%] | Post-emergence effect against ORYSA (crop plant compatibility) (Oryza sativa (ORYSA); 320 g/ha) [%] | Post-emergence effect against GLXMA (crop plant compatibility) (Glycine max (GLXMA); 20 g/ha) [%] | Post-emergence effect against GLXMA (crop plant compatibility) (Glycine max (GLXMA); 80 g/ha) [%] | Post-emergence effect against BRSNW (crop plant compatibility) (Brassica napus (BRSNW)) [%] | other results
1 | CCOC(=O)C(Oc1nn(-c2ccccc2F)c(-c2ccc(F)nc2)c1Br)SC (centres unmarked) [Example I-01] | – | – | – | – | – | – | – | – | – | – | – | – | Pre-emergence effect at 80 g/ha against POLCO in % ([1]; 80 g/ha): 80%; Pre-emergence effect at 320 g/ha against POLCO in % ([1]; 320 g/ha): 80%; Pre-emergence effect at 80 g/ha against AMARE in % ([2]; 80 g/ha): 90%; Pre-emergence effect at 320 g/ha against AMARE in % ([2]; 320 g/ha): 100%; pest or weed control at 320 g/ha [3]: 80%; pest or weed control at 320 g/ha (Setaria viridis (SETVI)): 80%; pest or weed control at 80 g/ha ([4]; 80 g/ha, read-out: Post-emergence effect at 80 g/ha against POLCO in %): 80%; pest or weed control at 320 g/ha ([4]; 320 g/ha, read-out: Post-emergence effect at 320 g/ha against POLCO in %): 80%; pest or weed control at 320 g/ha [5]: 80%; pest or weed control at 80 g/ha ([6]; 80 g/ha, read-out: Post-emergence effect at 80 g/ha against MATIN in %): 80%; pest or weed control at 320 g/ha ([6]; 320 g/ha, read-out: Post-emergence effect at 320 g/ha against MATIN in %): 80%; pest or weed control at 320 g/ha (Lolium rigidum (LOLRI)): 80%; pest or weed control at 320 g/ha (Viola tricolor (VIOTR)): 80%; pest or weed control at 320 g/ha [7]: 90%; pest or weed control at 80 g/ha ([8]; 80 g/ha, read-out: Post-emergence effect at 80 g/ha against ECHCG in %): 80%; pest or weed control at 320 g/ha ([8]; 320 g/ha, read-out: Post-emergence effect at 320 g/ha against ECHCG in %): 80%
2 | CCOC(=O)C(Oc1nn(-c2ccc(Cl)cc2F)c(-c2ccc(F)cc2F)c1Br)SC (centres unmarked) [Example I-12] | 0 | 0 | 0 | 0 | 0 | 0 | 0 | 0 | 0 | 0 | 0 | 0 | Post-emergence effect against GLXMA (crop plant compatibility) (Glycine max (GLXMA); 320 g/ha): 0%
3 | CCOC(=O)C(Oc1nn(-c2ncccc2F)c(-c2ccc(Cl)cc2)c1Br)SC (centres unmarked) [Example I-15] | 0 | 0 | 10 | 0 | 0 | 10 | 0 | 0 | 0 | 0 | 10 | 0 | –
